Laboratory results taken from patent US20100104566A1, “ANTITUMOR COMBINATION COMPRISING A MORPHOLINYL ANTHRACYCLINE AND AN ANTIBODY” (NERVIANO MEDICAL SCIENCES S.R.L., priority 2007, published 2010).

System: Human prostate carcinoma DU145 cells
Assay: In vivo antitumor efficacy of nemorubicin in combination with bevacizumab (tumor growth delay)
Parameters: species or system Balb Nu/Nu, male mice (athymic mice)
Conditions: DU145 s.c. in athymic mice; for Time to reach 1 g: advanced tumors, bevacizumab 20 mg/kg i.p. day 9, 13, 17, 21, 25, 29, nemorubicin 0.065 mg/kg i.v. day 9, 16, 23; for T-C: delay vs control to reach 1 g, bevacizumab 20 mg/kg i.p., nemorubicin 0.065 mg/kg i.v. q7dx3
Method: Materials and Methods: Balb Nu/Nu, male mice (athymic mice from Harlan, Italy) were maintained in cages with paper filter covers, food and bedding sterilized and water acidified. Human prostate carcinoma DU145 cells (from American Type Culture Collection) were implanted subcutaneously in athymic mice (2.5×10^6/cells mice). […] Drug treatments were performed on advanced tumors (when the tumors were palpable). Nemorubicin and bevacizumab were prepared immediately before use ad administered to mice in a volume of 10 ml/kg. Nemorubicin was administered as hydrochloride salt intravenously at a dose of 0.065 mg/kg and treatments were repeated weekly for 3 weeks. Bevacizumab was administered intraperitoneally at a dose of 20 mg/kg on the days 9, 13, 17, 21, 25 and 29 from the day of cell injection. When both compounds were administered on the same day, bevacizumab was administered intraperitoneally immediately before the intravenous injection of nemorubicin. Tumor growth and net body weight were evaluated every 3 days. Tumor growth was assessed by caliper. The two diameters were recorded, and the tumor weight was calculated according to the following formula: length (mm)×width^2 (mm)/2. The effect of the antitumor treatment was determined as the delay in the onset of an exponential growth of tumors [see for reference, Anti Cancer Drugs 7: 437-60, 1996]. This delay (T-C value) was defined as the difference of the time (in days) required for the treatment group (T) and the control group (C) tumors to reach a predetermined size (e.g. 1 g). Toxicity was evaluated on the basis of the body weight reduction.

Molecule | Time to reach 1 g [days] | T-C [days]
COc1cccc2c1C(=O)c1c(O)c3c(c(O)c1C2=O)C[C@@](O)(C(=O)CO)C[C@@H]3O[C@H]1C[C@H](N2CCO[C@H](OC)C2)[C@H](O)[C@H](C)O1 [Nemorubicin, (8S-cis, 2″S)-7,8,9,10-tetrahydro-6,8,11-trihydroxy-8-(hydroxyacetyl)-1-methoxy-10-{[2,3,6-trideoxy-3-(2-methoxy-4-morpholinyl)-α-L-lyxo-hexopyranosyl]oxy}-5,12-naphthacenedione] | 18.95 | 4.68
Bevacizumab: monoclonal antibody directed against the vascular endothelial growth factor (VEGF) | 21.31 | 7.04
